The numbers were not newly measured in US20090247603A1, “Stabilized pharmaceutical compositions comprising an HMG-CoA reductase inhibitor” (Orbus Pharma, Inc., priority 2005, published 2009), which cites them from elsewhere.

For the data set the following is noted: following oral administration.

In the case of `CC(C)c1c(C(=O)Nc2ccccc2)c(-c2ccccc2)c(-c2ccc(F)cc2)n1CC[C@@H](O)C[C@@H](O)CC(=O)[O-].CC(C)c1c(C(=O)Nc2ccccc2)c(-c2ccccc2)c(-c2ccc(F)cc2)n1CC[C@@H](O)C[C@@H](O)CC(=O)[O-].[Ca+2]` (relative stereo) [atorvastatin calcium, (R—(R*,R*))-2-(4-fluorophenyl)-[beta],[delta]-dihydroxy-5-(1-methylethyl)-3-phenyl-4((phenylamino)carbonyl)-1H-pyrole-1-heptanoic acid hemi calcium salt], the “dose recovered in urine” value is “Less than 2%”.
